# ± gives the expanded uncertainty stated by the source.
# What was measured:
# [1] = Crystal; DSC
# [2] = Molar enthalpy of transition or fusion; conditions: Crystal; DSC
compound,measurement,setting,value
CC1=NN(c2ccccc2)C(=O)C1 [Edaravone],Triple point temperature,[1],400.15 ± 1.2 K
same,Molar enthalpy of transition or fusion,[2],7.08 ± 0.956 kcal/mol
